Converted amounts (≈) assume the structure as drawn. Where two headings read alike, the source gives them in different places.

The nature of data set [1]: physchem.
The target of data set [2] is T1, Notch transcriptional activation complex (NTC) (Homo sapiens, UniProt P46531+Q06330).
T1 construct: made in house; host or cells: SF21 insect cells (baculovirus)
The data set can be described thus: Notch complex assembly assay (NTC AlphaScreen assay). It is filed as binding. The procedure: Notch Complex Assembly Assay
All recombinant proteins were expressed using baculovirus expression vectors in SF21 cells and purified. Unless otherwise stated, all assays contained 125 fmol of double stranded oligonucleotide, CSL, Notch1 and MAML1 proteins. Reactions were carried out in Tris-buffered saline with 0.1% Tween (“TBS-T”) buffer containing 0.2% bovine serum albumin (“BSA”) and 100 μg/mL salmon sperm DNA. Briefly, the Notch complex was assembled on a biotinylated double stranded (“DS”) oligonucleotide harboring one CSL binding site (5′-[…]-3′). Complex assembly was quantitated using ALPHASCREEN technology (Perkin Elmer). Proteins in the complexes were detected using specific antibodies to either MAML1 (Cell signaling, D3K7B), Notch1 (Abcam, 52627) or CSL (anti-His, Abcam 18184). Streptavidin conjugated […] beads (Perkin Elmer, 6760002) were used to bind the DS oligonucleotide, and Protein-A conjugated […] beads (Perkin Elmer, 6760137) were used to detect antibody-coated proteins. For screening compounds, Notch transcriptional activation complex (“NTC”) components were added to wells that already contained the inhibitor to be assayed and allowed to incubate for 30 minutes. The ALPHASCREEN plate (Perkin Elmer, 6008350) was then read on an Envision Plate reader (Perkin Elmer) as specified by the manufacturer.
(In Alpha technology, singlet oxygen from a donor bead excites a nearby acceptor bead.)

A short description of data set [3]: Metabolism to acid form in mouse hepatocytes. Format: in vitro ADME. Particulars: to SSTN-258.
The nature of data set [4]: Pharmacokinetic study in mouse plasma. Particulars: for Cmax: read-out: *C0/Cmax. It is filed as in vivo. The method, then: Pharmacokinetic studies were performed as previously described (Astudillo et al. (2016) Cancer Res). The following treatments were administered: NADi-260 via intraperitoneal (i.p.) route at 100 mg/kg, NADI-260 via intravenous route (i.v.) at 2 mg/kg, NADi-351 via i.p. at 10 mg/kg, NADi-351 via […] at 10 mg/kg and NADi-351 via oral route (PO) at 50 mg/kg. Blood samples were collected from each treatment group and their respective control grounds, plasma was separated from blood immediately by centrifugation at 4000 rpm for 10 min at 4° C. and stored below −70° C. until bioanalysis. All samples were processed for analysis by protein precipitation using acetonitrile and analyzed by fit for purpose LC-MS/MS method. Pharmacokinetic parameters were calculated using the non-compartmental analysis module of Phoenix WinNonlin (Version 6.3). Histological Analysis of Mouse Intestine Tissue

Data set [5] in a line: Metabolism to acid form in liver microsomes. Format: in vitro ADME. Particulars: to SSTN-258. Background: Liver microsomes are vesicles of endoplasmic reticulum, rich in cytochrome P450 enzymes.
The subject of data set [6] is OE 33 cell line. The data set can be described thus: Cell viability, MTT, OE33 cell line. Format: cell-based, human. Particulars: for IC50: Homo sapiens, OE33, 72 h treatment. The source says: OE33 cells, human esophageal adenocarcinoma cell lines, were obtained from the European Collection of Cell Culture. SUM-149 and SUM-159, breast cancer cell lines, were obtained from Dr. Joyce Slingerland at the University of Miami School of Medicine. The following cell lines were obtained directly from the ATCC: 786-0, a human renal cell adenocarcinoma cell line; HT-1080, a human fibrosarcoma cell line; MCF-7, a mammary gland adenocarcinoma; T47D, a human mammary ductal carcinoma cell line; and H-23 a non-small cell lung adenocarcinoma cell line. All cell lines were propagated in growth media as specified.

Data set [7] can be described thus: GSH ethyl ester conjugation / parent remaining in human liver microsomes. Particulars: for Percentage (%) Parent Remaining in HLM: reacted with GSH. Format: in vitro ADME.
The nature of data set [8]: Aqueous solubility in SGF, FaSSIF and PBS.
Setting [9] is: Table C, NTC AlphaScreen assay, read-out: *IC50.
The mark [10] stands for this setting: Table B, read-out: IC50 (μM) NTC.
Setting [11] is: Table E, NTC AlphaScreen assay, read-out: *IC50.
Where [12] appears, read: ip, NADi-260 i.p. 100 mg/kg, mouse plasma.
The mark [13] stands for this setting: iv, NADi-260 i.v. 2 mg/kg, mouse plasma, back extrapolated, initial three time points only.
The mark [14] stands for this setting: iv, NADi-260 i.v. 2 mg/kg, mouse plasma, initial three time points only.
[15] abbreviates: pH 1.2, simulated gastric fluid.

T1 sequence (P46531 1754-2555 limits assumed): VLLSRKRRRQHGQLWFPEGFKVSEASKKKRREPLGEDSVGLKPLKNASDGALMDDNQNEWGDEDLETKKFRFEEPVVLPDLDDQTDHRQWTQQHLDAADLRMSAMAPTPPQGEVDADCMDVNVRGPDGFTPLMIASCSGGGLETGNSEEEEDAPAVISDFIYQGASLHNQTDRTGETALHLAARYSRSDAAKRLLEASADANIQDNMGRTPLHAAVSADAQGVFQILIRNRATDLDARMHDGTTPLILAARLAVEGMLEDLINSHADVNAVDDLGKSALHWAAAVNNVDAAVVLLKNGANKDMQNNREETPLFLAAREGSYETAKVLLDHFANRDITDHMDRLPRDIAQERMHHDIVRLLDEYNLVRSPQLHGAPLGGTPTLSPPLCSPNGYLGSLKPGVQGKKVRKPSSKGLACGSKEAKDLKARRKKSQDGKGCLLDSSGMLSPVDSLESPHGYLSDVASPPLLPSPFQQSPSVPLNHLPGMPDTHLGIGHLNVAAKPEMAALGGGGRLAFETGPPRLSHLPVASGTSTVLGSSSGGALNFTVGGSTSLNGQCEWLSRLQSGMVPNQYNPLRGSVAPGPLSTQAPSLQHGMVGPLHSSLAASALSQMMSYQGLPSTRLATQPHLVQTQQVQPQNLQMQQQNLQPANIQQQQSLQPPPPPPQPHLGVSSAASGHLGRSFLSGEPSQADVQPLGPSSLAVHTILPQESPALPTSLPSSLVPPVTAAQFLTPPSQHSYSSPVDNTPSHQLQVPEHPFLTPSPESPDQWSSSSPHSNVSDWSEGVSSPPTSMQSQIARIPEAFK
T1 sequence (Q06330 whole entry): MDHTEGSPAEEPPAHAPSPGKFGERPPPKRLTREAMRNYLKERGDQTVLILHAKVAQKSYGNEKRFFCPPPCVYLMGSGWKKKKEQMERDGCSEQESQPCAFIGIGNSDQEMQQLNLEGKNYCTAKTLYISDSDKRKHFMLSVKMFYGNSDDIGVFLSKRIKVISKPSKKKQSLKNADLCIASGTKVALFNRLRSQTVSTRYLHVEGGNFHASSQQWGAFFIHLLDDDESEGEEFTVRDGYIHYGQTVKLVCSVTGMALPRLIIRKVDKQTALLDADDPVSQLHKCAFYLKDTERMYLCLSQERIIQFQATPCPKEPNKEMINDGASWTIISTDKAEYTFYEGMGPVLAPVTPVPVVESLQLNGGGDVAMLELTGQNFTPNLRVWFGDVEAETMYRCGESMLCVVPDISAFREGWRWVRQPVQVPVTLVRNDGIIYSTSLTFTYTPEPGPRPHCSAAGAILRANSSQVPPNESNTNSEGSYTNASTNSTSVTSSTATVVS

Regarding `CC/C(=C(/CC)c1ccc(O)cc1)c1ccc(O)cc1` [DES, diethylstilbestrol, reference compound], in data set [1] (pH 7.4, aqueous buffer), the solubility – broadly, the dissolved amount per volume that the medium holds – is less than 5 µM.
For the compound `CCc1coc(COc2c(F)cc(/C=C3\SC(=S)N(CC(=O)N(C)C)C3=O)cc2OC)n1` [NADi-253], the IC50 (in general, the concentration that gives 50% inhibition) in data set [2] (setting [9]) turned out to be 0.3 µM.
The same measure, in the same setting: as for `CCc1nnc(COc2c(F)cc(/C=C3\SC(=S)N(CC(=O)N(C)C)C3=O)cc2OC)[nH]1` [NADi-262], the figure is 0.08 µM.
Turning to `CCOC(=O)COc1c(F)cc(/C=C2\SC(=S)N(CC(=O)N(C)C)C2=O)cc1OC` [SSTN-253], the “time to metabolize to acid form” value in data set [3] and in data set [5] was no more than 15 min in each case. Moreover, the “metabolism in mouse plasma” value in data set [4] (pharmacokinetic study of SSTN-253, FIG. 1C) is reported as “metabolizes to its acid form (SSTN-258)”. Besides, the IC50 in data set [6] was 9.3 µM; in data set [2] (setting [10]), 0.058 µM; in data set [2] (setting [9]) it was 0.06 µM; in data set [2] (setting [11]), 0.06 µM.
As to `COc1cc(/C=C2\SC(=S)N(CC(=O)N(C)C)C2=O)cc(F)c1OCc1nc[nH]n1` [NADi-260, (Z)-2-(5-(4-((1H-1,2,4-triazol-3-yl)methoxy)-3-fluoro-5-methoxybenzylidene)-4-oxo-2-thioxothiazolidin-3-yl)-N,N-dimethylacetamide], the “Percentage (%) Parent Remaining in HLM” value in data set [7] (incubation time 0 min) is listed as 100%; in data set [7] (incubation time 60 min), 46%. In addition, in data set [7] (within 60 minutes of incubation), the “GSH ethyl ester conjugation in HLM” value is reported as “showed GSH ethyl ester conjugation”. Moreover, the AUC(0-inf) (commonly total exposure, with the tail of the curve extrapolated) turned out to be 5420 ng·h/mL in data set [4] (setting [12]) and 78 ng·h/mL in data set [4] (setting [14]). For the same compound, the AUC(0-t) – broadly, the area under the concentration-time curve up to a stated or last time point – in data set [4] (setting [12]) was found to be 5320 ng·h/mL; in data set [4] (setting [14]) it was 77 ng·h/mL. Besides, the Tmax (commonly the time from dosing to the highest level) in data set [4] (setting [12]) stood at 4.8 min. The Cmax in data set [4] (setting [12]) is 5700 ng/mL; in data set [4] (setting [13]) it was 837 ng/mL. In addition, the clearance (in general, the rate of elimination divided by the concentration) in data set [4] (iv, NADi-260 i.v. 2 mg/kg, mouse plasma, cell says NR, value in footnote) was 429 mL/min/kg. In data set [4] (setting [14]), the half-life – broadly, how long it takes for the measured level to halve – was 4.8 min. The Vd in data set [4] (iv, NADi-260 i.v. 2 mg/kg, mouse plasma, read-out: Vss) was determined as 1.79 L/kg. Moreover, the half-inhibitory concentration (IC50) in data set [2] (setting [9]) and in data set [2] (setting [11]) was 0.02 µM throughout.
In the case of `COc1cc(/C=C2\SC(=S)N(CC(=O)N(C)C)C2=O)ccc1OCC(=O)O` [SSTN-254], the concentration for half-maximal inhibition (IC50) in data set [6] was greater than 25 µM; in data set [2] (setting [10]) it was 4.4 µM.
Regarding `COc1cc(/C=C2\SC(=S)N(CC(=O)N(C)C)C2=O)cc(F)c1OCc1nc(C)c(C)o1` [NADi-251], the “*IC50 (μM)” value in data set [2] (Table C, NTC AlphaScreen assay) was “Inactive”.
The same measure, in the same setting: the same measure for `COc1cc(/C=C2\SC(=S)N(CC(=O)N(C)C)C2=O)cc(F)c1OCc1nnc(C)o1` [NADi-255]: “Inactive”.
In the case of `COc1cc(CC2SC(=S)N(CC(=O)N(C)C)C2=O)cc(F)c1OCc1nnc[nH]1` (centres unmarked) [PM7], in data set [4] (setting [12]), the AUC(0-inf) amounted to 19100 ng·h/mL, the AUC(0-t) amounted to 18800 ng·h/mL, the time of peak concentration (Tmax) was determined as 15 min and the Cmax worked out at 8520 ng/mL. Also, the Cmax in data set [4] (setting [13]) was 3480 ng/mL. Further, in data set [4] (setting [14]), the AUC(0-inf) came to 310 ng·h/mL and the AUC(0-t) was found to be 308 ng·h/mL.
For the compound `COc1cc(/C=C2\SC(=S)N(CC(=O)N(C)C)C2=O)cc(F)c1O` [PM6], in data set [4] (after NADi-260 i.v. 2 mg/kg, mouse plasma), the “plasma level of metabolite” value is listed as “BQL”. Also, in data set [4] (setting [12]), the AUC(0-t) is 21 ng·h/mL, the Tmax worked out at 15 min and the Cmax worked out at 41 ng/mL.
On to `O=C(O)CCCc1ccc(N(CCCl)CCCl)cc1` [Chlorambucil, chlorambucil], for which the solubility was 70.4 ± 2.6 µM (≈ 21.4 µg/mL) in data set [8] (setting [15]) and 68.9 ± 1.9 µM (≈ 21 µg/mL) in data set [8] (pH 6.5, fassif).
As for `COc1ccc2[nH]c([S+]([O-])Cc3ncc(C)c(OC)c3C)nc2c1` (centres unmarked) [Omeprazole, omeprazole, reference compound], the solubility in data set [1] (setting [15]) was less than 5 µM; in data set [1] (pH 6.5, fassif), 174 ± 5.4 µM (≈ 60 µg/mL).
For the compound `CCN(CC)C(=O)COc1c(F)cc(/C=C2\SC(=S)N(CC(=O)N(C)C)C2=O)cc1OC` [NADi-244], the IC50 in data set [2] (setting [9]) amounted to 2.9 µM.
Still for that read-out and setting: the same measure for `COc1cc(/C=C2\SC(=S)N(CC(=O)N(C)C)C2=O)cc(F)c1OCc1nnc(C)[nH]1` [NADi-261]: 0.62 µM.
Turning to `COc1cc(/C=C2\SC(=S)N(CC(=O)N(C)C)C2=O)cc(F)c1OCc1ncc(C)o1` [NADi-249], the “*IC50 (μM)” value in data set [2] (Table C, NTC AlphaScreen assay) is on record as “Inactive”.
In the case of `COc1cc(/C=C2\SC(=S)N(CC(=O)N(C)C)C2=O)cc(F)c1OCc1ncco1` [NADi-248], the “*IC50 (μM)” value in data set [2] (Table C, NTC AlphaScreen assay) was “Inactive”.
Turning to `COc1cc(/C=C2\SC(=S)N(CC(=O)N(C)C)C2=O)cc(F)c1OCC(=O)O` [SSTN-258], the “Cell viability (MTT, μM, 72 h treatment OE 33 cell line)” value in data set [6] is on record as “No effect”. Also, the “inhibition of NTC assembly” value in data set [2] (FIG. 1B) is “did not inhibit”. Besides, in data set [2] (Table B), the “IC50 (μM) NTC” value is “Inactive”.
`CCc1noc(COc2c(F)cc(/C=C3\SC(=S)N(CC(=O)N(C)C)C3=O)cc2OC)n1` [NADi-259]: the “*IC50 (μM)” value in data set [2] (Table C, NTC AlphaScreen assay) is listed as “Inactive”.
Still for that read-out and setting: as for `CCc1nnc(COc2c(F)cc(/C=C3\SC(=S)N(CC(=O)N(C)C)C3=O)cc2OC)o1` [NADi-256], the entry is “Inactive”.
As for `COc1cc(/C=C2\SC(=S)N(CC(=O)N(C)C)C2=O)cc(F)c1OCc1nc(C)no1` [NADi-258], the “*IC50 (μM)” value in data set [2] (Table C, NTC AlphaScreen assay) is recorded as “Inactive”.
Turning to `CCOC(=O)COc1ccc(F)cc1/C=C1\SC(=S)N(CC(=O)N(C)C)C1=O` [SSTN-251], the IC50 in data set [6] worked out at 12.8 µM; in data set [2] (setting [10]), 5.1 µM.

Values taken from patent US12275725B2, “Inhibitors of the notch transcriptional activation complex and methods for use of the same” (University of Miami, priority 2019, dated 2025).
